From patent US20230301890A1, “COMPOSITIONS COMPRISING UROLITHINS” (Amazentis SA, priority 2022, published 2023)

Tested on: skin barrier function
Test: Skin barrier function (TEWL) by Tewameter, aging studies
Assay type: in vivo, human
Conditions: UA 1% topical, 8 weeks
Protocol: TEWAMETER® TM 300 (Courage & Khazaka, Cologne, Germany): Transepidermal water loss (TEWL) is a non-invasive method to measure the barrier function of the skin and is regarded as a sensitive parameter to quantify skin barrier damage. Briefly, the insensible water evaporation from the skin is measured by placing cylindric open chamber with two hygrosensors at defined distance to the skin. The probe is held in place for each measurement for 30 seconds. This is to assure that a stable value has been established. The first part of the measurements belongs to this equilibration phase. The values of the last 10 seconds (=10 values) are averaged as the actual measurement value.
TEWAMETER® TM 300 (Courage & Khazaka, Cologne, Germany): Transepidermal water loss (TEWL) is a non-invasive method to measure the barrier function of the skin and is regarded as a sensitive parameter to quantify skin barrier damage. Briefly, the insensible water evaporation from the skin is measured by placing cylindric open chamber with two hygrosensors at defined distance to the skin.

Question: Which skin barrier function does the source give for `O=c1oc2cc(O)ccc2c2ccc(O)cc12` [Urolithin A] here?
Answer: no significant impact
